Some test systems named below: SNB-19; SW-620; SK-MEL-28; SK-OV-3; NCI-H23; PC-3; U-251; K562; SK-MEL-2; CCRF-CEM; SF-268; SF-539; LOX IMVI; OVCAR-8; XF498; KM-20L2; DMS-114; DMS-273; M19-MEL; HOP-18.
Assay in all cases: NCI-60 cell line screen, 48 h

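Growth conditions: 96-well plates. Treatment: test compound, 48 hours, 5 concentrations. Analysis: linear interpolation between bracketing concentrations; unreached endpoints set to highest concentration. GI50 = concentration required for 50% inhibition of growth.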 Calls of active or inactive are those of the source. Cut-off read from the data, not from the text of the source: active = GI50 up to about 1.1 µM and inactive = higher.

Regarding `O=C(O)/C(Cc1ccnc2ccccc12)=N\O`, the GI50 in the assay on SNB-19, with SW-620, in the assay with SK-MEL-28, in the assay with SK-OV-3, with NCI-H23 and in the assay on PC-3 was > 100 µM (inactive) each time. In addition, the GI50 with U-251, in the assay with K562, in the assay on SK-MEL-2, in the assay with CCRF-CEM, with SF-268 and with SF-539 was > 100 µM (inactive) each time. Further, the GI50 in the assay on LOX IMVI and with OVCAR-8 was > 100 µM (inactive) each time.

Take `O=[N+]([O-])c1ccccc1S(=O)(=O)c1cccc2c1NCCC2`: the GI50 in the assay on SNB-19 was 65.2 µM (inactive); in the assay with SW-620, > 100 µM (inactive); in the assay on SK-MEL-28 it was 45.6 µM (inactive); in the assay on SK-OV-3, 68.4 µM (inactive); with PC-3, 27.9 µM (inactive); in the assay with K562, 21.3 µM (inactive). Further, the GI50 was 21.6 µM (inactive) in the assay with SK-MEL-2; 28 µM (inactive) in the assay on CCRF-CEM; > 100 µM (inactive) in the assay on SF-268; > 100 µM (inactive) with SF-539; 39.1 µM (inactive) in the assay with LOX IMVI; 69.3 µM (inactive) with OVCAR-8.

Take `COC(=O)c1ccccc1/N=C(/NC1CCCCCC1)NS(=O)(=O)c1ccc(C)cc1`: the GI50 with SNB-19, in the assay with SW-620, in the assay on SK-MEL-28, in the assay on SK-OV-3, in the assay on NCI-H23 and in the assay on PC-3 was > 100 µM (inactive) in each case. Moreover, the GI50 in the assay with U-251, in the assay on K562, with SK-MEL-2, with CCRF-CEM, in the assay with SF-268 and in the assay with SF-539 was > 100 µM (inactive) in each case. In addition, the GI50 in the assay on LOX IMVI and with OVCAR-8 was > 100 µM (inactive) in each case.

`Cc1ccc2oc3c(ccc(=O)n3C)c(=O)c2c1`: the GI50 in the assay with SNB-19, with SW-620, in the assay with SK-MEL-28, in the assay with SK-OV-3, with NCI-H23 and in the assay with PC-3 was > 100 µM (inactive) in each case. Moreover, the GI50 with U-251, in the assay on K562, in the assay on SK-MEL-2, in the assay on CCRF-CEM, in the assay on SF-268 and in the assay on SF-539 was > 100 µM (inactive) in each case. For the same compound, the GI50 in the assay with LOX IMVI and in the assay with OVCAR-8 was > 100 µM (inactive) throughout.

With `Oc1ccc(NCn2c(=S)sc3ccccc32)cc1`, the GI50 was > 100 µM (inactive) in the assay with SNB-19; 42.7 µM (inactive) in the assay with SW-620; > 100 µM (inactive) with SK-MEL-28; > 100 µM (inactive) with SK-OV-3; > 100 µM (inactive) in the assay on NCI-H23; > 100 µM (inactive) with PC-3. For the same compound, the GI50 in the assay with U-251 is > 100 µM (inactive); in the assay with K562, 22.3 µM (inactive); with SK-MEL-2, > 100 µM (inactive); with CCRF-CEM, 32 µM (inactive); with SF-268, > 100 µM (inactive); with SF-539, > 100 µM (inactive). The GI50 in the assay on LOX IMVI and in the assay on OVCAR-8 was > 100 µM (inactive) throughout.

In the case of `CN1CCN(c2cc(-c3cc4ccccc4o3)oc(=O)c2C#N)CC1`, the GI50 is > 100 µM (inactive) with SNB-19; > 100 µM (inactive) with SW-620; > 100 µM (inactive) in the assay on SK-MEL-28; > 100 µM (inactive) in the assay with NCI-H23; > 100 µM (inactive) with XF498; 89.5 µM (inactive) in the assay with KM-20L2. The GI50 with DMS-114 was 69.2 µM (inactive); in the assay on U-251, > 100 µM (inactive); with K562, 66.5 µM (inactive); in the assay with SK-MEL-2, > 100 µM (inactive); with CCRF-CEM it was 71.4 µM (inactive); in the assay on SF-268, 51.2 µM (inactive). The GI50 in the assay with SF-539 is 98.4 µM (inactive); in the assay on LOX IMVI, 48.3 µM (inactive); in the assay with DMS-273, 57.9 µM (inactive); with OVCAR-8, 57.7 µM (inactive).

Regarding `OC1(c2ccccc2)CC2CCC(C1)N2CCc1ccccc1` (configuration not stated), the GI50 in the assay on SNB-19 is 93.1 µM (inactive); in the assay on SW-620 it was 48.9 µM (inactive); in the assay on SK-MEL-28, 68.4 µM (inactive); in the assay on SK-OV-3 it was > 100 µM (inactive); in the assay on NCI-H23, 53.6 µM (inactive); in the assay on PC-3 it was 41.6 µM (inactive). In addition, the GI50 in the assay on U-251 is > 100 µM (inactive); with K562, 45.5 µM (inactive); with SK-MEL-2 it was > 100 µM (inactive); in the assay on CCRF-CEM, 34 µM (inactive); in the assay with SF-268, > 100 µM (inactive); in the assay on SF-539, 81.8 µM (inactive). Further, the values for the GI50 with LOX IMVI and with OVCAR-8 were 54.7 µM (inactive) and 92.9 µM (inactive), respectively.

Regarding `CCOC(=O)Cn1c(=O)c2cc(C)cc3c(Cl)nc4c(OC)c(OC)cc1c4c32`, the GI50 with SNB-19, with SW-620, in the assay with SK-MEL-28, with SK-OV-3, with NCI-H23 and with PC-3 was > 100 µM (inactive) throughout. Also, the GI50 with U-251 is > 100 µM (inactive); in the assay with K562, > 100 µM (inactive); with SK-MEL-2, > 100 µM (inactive); in the assay with CCRF-CEM, > 100 µM (inactive); in the assay with SF-268 it was 35.6 µM (inactive); in the assay on SF-539, > 100 µM (inactive). Also, the GI50 with LOX IMVI and in the assay on OVCAR-8 was > 100 µM (inactive) in each case.

As to `COC(=O)C1=C(C)N2CCOC2(C)C(C(=O)OC)C1c1ccc[nH]1` (configuration not stated), the GI50 in the assay with SNB-19, in the assay with SW-620, in the assay with SK-MEL-28, with NCI-H23, in the assay with M19-MEL and in the assay with KM-20L2 was > 100 µM (inactive) each time. In addition, the GI50 in the assay with DMS-114, in the assay on K562, in the assay with SK-MEL-2, in the assay on CCRF-CEM, in the assay with SF-268 and in the assay with SF-539 was > 100 µM (inactive) throughout. The GI50 with OVCAR-8 is > 100 µM (inactive).

Regarding `Cc1ccc(S(=O)(=O)N(CC(=O)O)c2ccccc2)cc1`, the GI50 in the assay with SNB-19, in the assay on SW-620, with SK-MEL-28, in the assay with SK-OV-3, with NCI-H23 and with HOP-18 was > 100 µM (inactive) each time. The GI50 in the assay on M19-MEL, in the assay on KM-20L2, in the assay on U-251, in the assay on K562, in the assay on SK-MEL-2 and in the assay with CCRF-CEM was > 100 µM (inactive) throughout. Also, the GI50 in the assay on SF-268, in the assay on SF-539, in the assay on LOX IMVI, in the assay with DMS-273 and in the assay on OVCAR-8 was > 100 µM (inactive) each time.

Regarding `O=c1cc(-c2cc(O)c(O)c(-c3c(O)cc4oc(-c5ccc(O)c(O)c5)cc(=O)c4c3O)c2)oc2cc(O)cc(O)c12`, the GI50 with SW-620 was > 25 µM (inactive); in the assay with SK-MEL-28, > 25 µM (inactive); in the assay with SK-OV-3, > 25 µM (inactive); in the assay on NCI-H23, > 25 µM (inactive); in the assay with PC-3, > 25 µM (inactive); in the assay with U-251, 19.2 µM (inactive). The GI50 with K562, with SK-MEL-2, with CCRF-CEM, in the assay with SF-268, in the assay on SF-539 and in the assay on LOX IMVI was > 25 µM (inactive) throughout. Besides, the GI50 with OVCAR-8 is > 25 µM (inactive).

As to `CC(C)NC(=O)CN1CCN(C2=C(Cl)C(=O)c3c(O)ccc(O)c3C2=O)CC1`, the GI50 is 13.6 µM (inactive) in the assay with SNB-19; 0.546 µM (active) in the assay on SW-620; 1.66 µM (inactive) in the assay on SK-MEL-28; 10.1 µM (inactive) with SK-OV-3; 1.03 µM (active) in the assay on NCI-H23; 1.89 µM (inactive) in the assay with PC-3. The GI50 in the assay on U-251 was 3.31 µM (inactive); with K562, 0.341 µM (active); in the assay with SK-MEL-2, 1.49 µM (inactive); in the assay on CCRF-CEM, 0.293 µM (active); in the assay on SF-268, 1.82 µM (inactive); in the assay with SF-539, 1.97 µM (inactive). The GI50 with LOX IMVI was 0.65 µM (active); with OVCAR-8, 0.861 µM (active).

Turning to `NNC(=O)CCc1ccc2ccc3ccccc3c2c1`, the GI50 in the assay on SNB-19 is 85.7 µM (inactive); in the assay on SW-620, > 100 µM (inactive); in the assay on SK-MEL-28, > 100 µM (inactive); in the assay on SK-OV-3, > 100 µM (inactive); with NCI-H23, > 100 µM (inactive); with PC-3, 67.3 µM (inactive). For the same compound, the GI50 in the assay on U-251 is > 100 µM (inactive); in the assay with K562, > 100 µM (inactive); in the assay with SK-MEL-2 it was > 100 µM (inactive); with CCRF-CEM it was > 100 µM (inactive); with SF-268 it was 62.2 µM (inactive); with SF-539, 54.6 µM (inactive). For the same compound, the GI50 is 98.9 µM (inactive) in the assay with LOX IMVI and > 100 µM (inactive) in the assay with OVCAR-8.

Consider `CC1CCC2N(C1)CC1C3(O)CC45OC6(O)C(O)CCC4(C)C6CCC5C3(O)CC(O)C1(O)C2(C)O` (configuration not stated), for which the GI50 in the assay on SNB-19, in the assay on SW-620, with SK-MEL-28, in the assay with SK-OV-3, with NCI-H23 and in the assay with PC-3 was > 100 µM (inactive) in each case. Further, the GI50 in the assay with U-251, with K562, in the assay on SK-MEL-2, in the assay on CCRF-CEM, in the assay with SF-268 and in the assay on SF-539 was > 100 µM (inactive) in each case. The GI50 in the assay on LOX IMVI and with OVCAR-8 was > 100 µM (inactive) each time.
